Activity calls are given as the source filed them. The calls are words filed in the database; no cut-off is given here.
Assays:
MCF7 = assay: Cytotoxicity against human MCF7 cells assessed as reduction in cell viability measured after 24 hrs by MTT assay; details: MCF7, 24 h
A549 = assay: Cytotoxicity against human A549 cells assessed as reduction in cell viability measured after 24 hrs by MTT assay; details: A549, 24 h
MDA-MB-231 = assay: Cytotoxicity against human MDA-MB-231 cells assessed as reduction in cell viability measured after 24 hrs by MTT assay; assay type: functional, cell-based; details: MDA-MB-231, 24 h
HT-29 [1] = assay: Cytotoxicity against human HT-29 cells assessed as reduction in cell viability measured after 24 hrs by MTT assay; assay type: functional, cell-based; details: HT-29, 24 h
HeLa = assay: Cytotoxicity against human HeLa cells assessed as reduction in cell viability measured after 24 hrs by MTT assay; assay type: functional, cell-based
HT-29 [2] = assay: Antitumor activity against human HT-29 cells xenografted in BALB/c nude mouse assessed as reduction in tumor weight at 10 mg/kg, ip administered as 2 days interval for 3 weeks and measured 3 weeks post-initial dosing relative to control; assay type: functional; design: scale not given: the % may be the effect or the level left
[3] = Cytotoxicity against human A549/TxR cells assessed as reduction in cell viability measured after 24 hrs by MTT assay; assay type: functional, cell-based
[4] = Cytotoxicity against human MCF7/TxR cells assessed as reduction in cell viability measured after 24 hrs by MTT assay; assay type: functional, cell-based
Sus scrofa = species: Sus scrofa; assay: […] of porcine brain tubulin polymerization at 5 uM measured at 1 min interval for 60 mins by fluorescence assay
[5] = Clearance in Sprague-Dawley rat at 10 mg/kg, iv by HPLC-MS/MS analysis; assay type: ADME, organism-based; details: in vivo
[6] = AUC in Sprague-Dawley rat at 10 mg/kg, iv by HPLC-MS/MS analysis; assay type: ADME, organism-based; design: dose 10 mg/kg, route iv; details: in vivo
[7] = Cmax in Sprague-Dawley rat at 10 mg/kg, iv by HPLC-MS/MS analysis; assay type: ADME, organism-based; design: dose 10 mg/kg, route iv; details: in vivo
[8] = Resistance index, ratio of IC50 for human MCF7/TxR cells to IC50 for human MCF7 cells; assay type: functional
[9] = Tmax in Sprague-Dawley rat at 10 mg/kg, iv by HPLC-MS/MS analysis; assay type: ADME, organism-based; details: in vivo
[10] = Resistance index, ratio of IC50 for human A549/TxR cells to IC50 for human A549 cells; assay type: functional
[11] = Half-life in Sprague-Dawley rat at 10 mg/kg, iv by HPLC-MS/MS analysis; assay type: ADME, organism-based; details: in vivo

Row | Structure (SMILES) | IC50 (MCF7) [µM] | IC50 (A549) [µM] | IC50 (MDA-MB-231) [µM] | IC50 (HT-29 [1]) [µM] | IC50 (HeLa) [µM] | further results
1 | COc1c(F)cc(C(=O)Nc2cc3c(cc2C(=O)NN)OCCO3)cc1F | > 20 | > 20 | > 20 | > 20 | > 20 | –
2 | COc1cc(C(=O)Nc2cc3c(cc2C(=O)O)OCCO3)cc(OC)c1OC | > 20 | > 20 | > 20 | > 20 | > 20 | –
3 | COc1cc(Nc2cc3c(cc2C(=O)O)OCCO3)cc(OC)c1OC | 6.76 | 11.5 | 6.79 | 2.16 | 2.91 | –
4 | COC(=O)c1cc2c(cc1Nc1cc(Br)c(OC)c(Br)c1)OCO2 | 6.46 | 2.64 | 11.7 | 2.02 | 3.4 | –
5 | COc1c(F)cc(Nc2cc3c(cc2C(=O)NN)OCO3)cc1F | > 20 | > 20 | > 20 | 3.65 | 5.88 | –
6 | COC(=O)c1cc2c(cc1Nc1cc(Br)c(OC)c(Br)c1)OCCO2 | 3.37 | 10.1 | 6.46 | 1.47 | 2.49 | –
7 | COc1ccc(Nc2cc3c(cc2C(N)=O)OCCO3)cc1OC | 13.1 | 0.91 | > 20 | 0.85 | 5.29 | –
8 | COC(=O)c1cc2c(cc1NC(=O)c1cc(Br)c(OC)c(Br)c1)OCCO2 | > 20 | > 20 | > 20 | > 20 | > 20 | –
9 | COC(=O)c1cc2c(cc1NC(=O)c1cc(OC)c(OC)c(OC)c1)OCCO2 | > 20 | > 20 | > 20 | > 20 | > 20 | –
10 | COC(=O)c1cc2c(cc1Nc1ccc(OC)c(OC)c1)OCCO2 | 11.3 | 1 | 5.46 | 0.55 | 2.11 | –
11 | CC(=O)O[C@H]1C(=O)[C@@]2(C)[C@H]([C@H](OC(=O)c3ccccc3)[C@]3(O)C[C@H](OC(=O)[C@H](O)[C@@H](NC(=O)c4ccccc4)c4ccccc4)C(C)=C1C3(C)C)[C@]1(OC(C)=O)CO[C@@H]1C[C@@H]2O [PACLITAXEL] | – | – | 0.007 | 0.011 | 0.039 | Activity (HT-29 [2]): 77.1%; IC50 [3]: 2.92 µM; IC50 [4]: 8.35 µM; Activity (Sus scrofa): Active
12 | COc1cc(Nc2cc3c(cc2C(=O)NN)OCCO3)cc(OC)c1OC | 0.37 | 0.74 | 0.36 | 0.13 | 0.32 | –
13 | NNC(=O)c1cc2c(cc1Nc1ccc3c(c1)OCO3)OCCO2 | > 20 | > 20 | > 20 | 1.02 | 3.54 | –
14 | COC(=O)c1cc(OC)c(OC)cc1Nc1cc(Br)c(OC)c(Br)c1 | > 20 | > 20 | > 20 | > 20 | > 20 | –
15 | COc1cc(Nc2cc3c(cc2C(=O)NN)OCO3)cc(OC)c1OC | 1.97 | 1.4 | 1.36 | 0.53 | 1.19 | –
16 | COc1cc(C(=O)Nc2cc3c(cc2C(=O)NN)OCCO3)cc(OC)c1OC | > 20 | > 20 | > 20 | > 20 | > 20 | –

Row | Structure (SMILES) | IC50 (MCF7) [µM] | IC50 (A549) [µM] | IC50 (MDA-MB-231) [µM] | IC50 (HT-29 [1]) [µM] | IC50 (HeLa) [µM] | further results
17 | COc1c(Br)cc(Nc2cc3c(cc2C(=O)NN)OCCO3)cc1Br | 0.44 | 1.14 | 0.47 | 0.23 | 0.24 | –
18 | COc1ccc(Nc2cc3c(cc2C(=O)NN)OCCO3)cc1 | > 20 | > 20 | > 20 | > 20 | > 20 | –
19 | COc1cc([C@@H]2c3cc4c(cc3[C@H](O)[C@H]3COC(=O)[C@H]23)OCO4)cc(OC)c1OC [PODOFILOX] | 0.039 | 0.059 | 0.017 | 0.023 | 0.044 | CL [5]: 56.5 mL/min/kg; AUC [6]: 2950 µg/L.hr; Cmax [7]: 3530 ng/mL; Ratio IC50 [8]: 1.1; Tmax [9]: 6 min; Ratio IC50 [10]: 1.2; IC50 [3]: 0.073 µM; t1/2 [11]: 12.6 min; IC50 [4]: 0.043 µM
20 | COc1c(F)cc(Nc2cc3c(cc2C(N)=O)OCCO3)cc1F | 12.2 | 2.21 | 1.7 | 0.86 | 6.12 | –
21 | COC(=O)c1cc(OC)c(OC)cc1Nc1cc(OC)c(OC)c(OC)c1 | > 20 | > 20 | > 20 | > 20 | > 20 | –
22 | COc1cc2c(c(OC)c1OC)-c1ccc(OC)c(=O)cc1[C@@H](NC(C)=O)CC2 [COLCHICINE] | – | 0.031 | 0.097 | 0.25 | 0.008 | –
23 | COC(=O)c1cc2c(cc1Nc1cc(F)c(OC)c(F)c1)OCO2 | > 20 | > 20 | > 20 | 8.53 | 10.6 | –
24 | COC(=O)c1cc2c(cc1Nc1ccc3c(c1)OCO3)OCCO2 | 11.2 | > 20 | 3.13 | 4.61 | 5.55 | –
25 | COc1cc(Nc2cc3c(cc2C(=O)O)OCO3)cc(OC)c1OC | 15.1 | 5.42 | 2.3 | 1.41 | 5.18 | –
26 | COC(=O)c1cc2c(cc1Nc1ccc(OC)cc1)OCCO2 | > 20 | > 20 | > 20 | > 20 | > 20 | –
27 | COC(=O)c1cc2c(cc1NC(=O)c1cc(F)c(OC)c(F)c1)OCCO2 | > 20 | > 20 | > 20 | > 20 | > 20 | –
28 | COC(=O)c1cc2c(cc1Nc1ccc3c(c1)OCCO3)OCCO2 | 8.6 | 6.36 | 16.6 | 4.64 | 12.8 | –
29 | COc1c(F)cc(Nc2cc3c(cc2C(=O)NN)OCCO3)cc1F | 15.4 | 1.2 | 5.92 | 1.31 | 2.56 | –
30 | COc1c(Br)cc(Nc2cc3c(cc2C(=O)O)OCO3)cc1Br | 16 | 15.9 | 5.6 | 3.13 | 6.9 | –
31 | COC(=O)c1cc2c(cc1Nc1cc(OC)c(OC)c(OC)c1)OCO2 | 0.98 | 2.67 | 0.74 | 0.38 | 0.39 | –
32 | COC(=O)c1cc2c(cc1Nc1cc(F)c(OC)c(F)c1)OCCO2 | > 20 | 1.55 | 4.1 | 4.47 | 5.22 | –

From ChEMBL document CHEMBL5137013 (Eur J Med Chem, 2022)
